# Earlier results in patent US8481599B2, “Compositions and methods for increasing compliance with therapies using aldehyde dehydrogenase inhibitors and treating alcoholism” (Tonix Pharmaceuticals Inc., priority 2001, dated 2013).
# Like-named read-outs stand apart in the source and are kept apart here.
# How the values were obtained:
# ALDH-I = target: T1, ALDH-I (Homo sapiens, UniProt P05091)
# T1 sequence (P05091 18-517): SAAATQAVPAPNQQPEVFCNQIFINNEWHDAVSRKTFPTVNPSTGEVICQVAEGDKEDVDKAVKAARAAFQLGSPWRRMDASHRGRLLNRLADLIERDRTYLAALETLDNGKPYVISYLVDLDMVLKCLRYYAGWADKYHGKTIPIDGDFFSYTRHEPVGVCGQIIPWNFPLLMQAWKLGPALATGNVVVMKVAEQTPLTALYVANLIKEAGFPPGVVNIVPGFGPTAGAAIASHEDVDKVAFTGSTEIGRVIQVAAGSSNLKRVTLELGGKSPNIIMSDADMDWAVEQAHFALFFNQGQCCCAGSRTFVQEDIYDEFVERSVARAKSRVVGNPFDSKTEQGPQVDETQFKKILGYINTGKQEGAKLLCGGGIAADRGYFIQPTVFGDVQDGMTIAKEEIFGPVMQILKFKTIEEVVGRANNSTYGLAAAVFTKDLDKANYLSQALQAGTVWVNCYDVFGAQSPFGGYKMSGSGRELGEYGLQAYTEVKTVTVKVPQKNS
# [1] = rat studies
# ALDH = conditions: rat studies
# ALDH-II = target: T2, ALDH-II (Homo sapiens, UniProt P00352); conditions: in vitro
# T2 sequence (P00352 1-501): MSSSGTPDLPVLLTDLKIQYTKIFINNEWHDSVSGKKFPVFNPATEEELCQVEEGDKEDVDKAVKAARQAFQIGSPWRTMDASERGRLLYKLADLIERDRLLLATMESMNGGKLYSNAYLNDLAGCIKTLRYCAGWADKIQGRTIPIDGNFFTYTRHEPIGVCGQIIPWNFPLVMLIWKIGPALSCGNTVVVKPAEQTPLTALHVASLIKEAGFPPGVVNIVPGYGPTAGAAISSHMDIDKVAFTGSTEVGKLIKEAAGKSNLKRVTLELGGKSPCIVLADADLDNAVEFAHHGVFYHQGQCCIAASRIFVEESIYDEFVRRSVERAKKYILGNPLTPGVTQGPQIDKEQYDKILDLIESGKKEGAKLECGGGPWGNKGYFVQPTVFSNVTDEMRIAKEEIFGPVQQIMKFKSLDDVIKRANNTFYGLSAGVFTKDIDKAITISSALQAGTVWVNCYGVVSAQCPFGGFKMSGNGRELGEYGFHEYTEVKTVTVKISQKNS
compound,measurement,setting,value
O=c1c(-c2ccc(O)cc2)coc2cc(O[C@@H]3O[C@H](CO)[C@@H](O)[C@H](O)[C@H]3O)ccc12 [Daidzin],inhibition of ALDH-I,ALDH-I,selective potent reversible inhibitor
N5-(hydroxycyclopropyl)-L-glutamine [coprine],suppression of ethanol consumption,[1],effectively suppressed ethanol consumption
same,potency as ALDH inhibitor relative to disulfiram,ALDH,more potent inhibitor of ALDH as compared to disulfiram
N#CN [cyanamide],inhibition of ALDH-II,ALDH-II,unable to inhibit
same,inhibition of ALDH-I,ALDH-I; in vitro,unable to inhibit
